The values below come from PMC3002971, “A Universal Approach to Eliminate Antigenic Properties of Alpha-Gliadin Peptides in Celiac Disease” (PLoS ONE, 2010).

One data set has as its system DQ8-Glia-α1 T cell clone. The data set can be described thus: T cell proliferation assay, DQ8-Glia-α1 T cell clone. The data set is classed as cell-based, human. Set-up: key: ± = 100 times reduced T cell stimulation compared to the ‘canonical’ epitope; - = 1000 times reduced T cell stimulation compared to the ‘canonical’ epitope. As to conditions: 3H-thymidine proliferation, triplicate; deamidated peptides, antigen 1–10 µg/ml; stimulation compared to canonical epitope. The procedure:
(§1) Gluten specific T cell clones were generated from small intestinal biopsies of celiac disease patients as described before, [11], [12]. All patients signed an informed consent form which was approved by the hospital ethics committee. Proliferation assays were performed in triplicate in 150 µl Iscove's Modified Dulbecco's Medium (Bio Whittaker, Verviers, Belgium) with 10% pooled normal human serum in 96 well flat-bottom plates using 2×10^4 gluten specific T cells stimulated with […] irradiated HLA-DQ2-matched allogeneic peripheral blood mononuclear cells (3000 rad) in the presence or absence of antigen (1–10 µg/ml), [11], [12]. After 2 days ^3H-thymidine (0.5 µCi/well) was added to the cultures, and 18–20 hours thereafter the cells were harvested. ^3H-thymidine incorporation in the T cell DNA was determined with a liquid scintillation counter (1205 Betaplate Liquid Scintillation Counter, LKB Instruments, Gaithersburg, MD). A binding assay was performed as described previously.

The conditions of data set [1]: cited from earlier work. From the text: In addition to the canonical epitope motifs, a large series of sequence variants with one or two amino acid substitutions were detected ( Tables 2 , 3 , 4 , 5 ). The large majority of the Gli-B2 gliadins contained sequence variants of the DQ2-Glia-α1, DQ2-Glia-α2, and DQ2-Glia-α3 epitopes with two amino acid substitutions. Furthermore, Gli-A2 transcripts harbored a proline to serine substitution at position 8 (p8) of the DQ2-Glia-α2 epitope and a sequence variant (QGSFRP(S/F)QQN, amino acid substitution in bold) of the DQ8-Glia-α1 epitopes. Importantly, the 33-mer peptide ([…] ...

For another data set, the system named is T cell. To be noted: cited from earlier work. From the text: Many gluten peptides with T cell stimulatory properties have now been identified. Such peptides have been found in wheat α-, γ-, and ω-gliadins as well as in low molecular weight (LMW) and high molecular weight (HMW) glutenins [8]–[14]. […] An α-gliadin derived 33-mer peptide (amino acid sequence […]) was identified that encodes six partially o ...

Data set [2] deals with DQ2-Glia-α1 specific T cell clones. Kind of data set: T cell proliferation assay, DQ2-Glia-α1 specific T cell clone. Also on record: key: ± = 100 times reduced T cell stimulation compared to the ‘canonical’ epitope; - = 1000 times reduced T cell stimulation compared to the ‘canonical’ epitope. It counts as cell-based, human. To be noted: 3H-thymidine proliferation, triplicate; deamidated 14- to 17-mer peptides, antigen 1–10 µg/ml; stimulation compared to canonical epitope. On the procedure: as §1

Data set [3] has as its system DQ2-Glia-α2 specific T cell clones. The data set can be described thus: T cell proliferation assay, DQ2-Glia-α2 specific T cell clone. It counts as cell-based, human. Also on record: key: ± = 100 times reduced T cell stimulation compared to the ‘canonical’ epitope; - = 1000 times reduced T cell stimulation compared to the ‘canonical’ epitope. As to conditions: 3H-thymidine proliferation, triplicate; deamidated 14- to 17-mer peptides, antigen 1–10 µg/ml; stimulation compared to canonical epitope. The procedure:
as §1

As to LGEGFFQPSQENP [Peptide 20], in the data set with DQ8-Glia-α1 T cell clone, the “DQ8-Glia-α1 T cell clone” value was “-”.
On to “LQLQPFPQPQLPYPQPQLPYPQPQLPYPQPQPF [33-mer peptide]”, for which the “resistance to degradation in the gastrointestinal tract” value in data set [1] was “highly resistant to degradation”. For the same substance, the “T cell stimulatory properties” value in the data set on T cell is “very potent T cell stimulatory properties”.
As for QPQPFP-PELPYPQTQP [Peptide 15], in data set [2], the “Glia-α1 T cell clone” value is on record as “-”. Also, the “Glia-α2 T cell clone” value in data set [3] is “-”.
